Read-outs that look alike come from different tables or passages of the source.
Target: CDK12 wt/CycK (Homo sapiens (Human), UniProt Q9NYV4)
Experiment: Radiometric protein kinase assay (33PanQinase Activity Assay), Assay Condition A (thiol containing conditions)
Format: biochemical
Experimental: Example 1—Assay Condition A (Thiol Containing Conditions)
Objective: The IC50 profile of test compounds was determined using three protein kinases.
Test compounds: The compounds were provided as pre-weighed powders in vials. The compounds were dissolved to 1×10^−02M by adding DMSO. 100 μl of each of the resulting stock solutions were transferred into column 2 of four 96 well “master plates”.
Prior to testing, the 1×10^−02M stock solutions in column 2 of the master plates were subjected to a serial, semi-logarithmic dilution using 100% DMSO as a solvent. […] Column 1 and 7 were filled with 100% DMSO as controls. Subsequently, 2×10 μl from each well of the serial diluted copy plates were aliquoted with a 96 channel pipettor into two identical sets of “compound dilution plates”.
In the process, 90 μl H2O were added to each well of a set of compound dilution plates. To minimize potential precipitation, the H2O was added to each plate only a few minutes before the transfer of the compound solutions into the assay plates. Each plate was shaken thoroughly, resulting in a “compound dilution plate/10% DMSO”.
For the assays, 5 μl solution from each well of the compound dilution plates/10% DMSO were transferred into the assay plates. The final volume of the assay was 50 μl. All compounds were tested at 10 final assay concentrations in the range from 1×10^−04M to 3×10^−09M, in singlicate. The final DMSO concentration in the reaction cocktails was 1% in all cases.
Recombinant protein kinases: All protein kinases were expressed in Sf9 insect cells or in E. coli as recombinant GST-fusion proteins or His-tagged proteins, either as full-length or enzymatically active fragments. All kinases were produced from human cDNAs and purified by either GSH-affinity chromatography or immobilized metal. Affinity tags were removed from a number of kinases during purification. The purity of the protein kinases was examined by SDS-PAGE/Coomassie staining, the identity was checked by mass spectroscopy.
Protein kinase assay: A radiometric protein kinase assay (^33PanQinase® Activity Assay) was used for measuring the kinase activity of the three protein kinases. All kinase assays were performed in 96-well FlashPlates™ from PerkinElmer (Boston, Mass., USA) in a 50 μl reaction volume. The reaction cocktail was pipetted in four steps in the following order: • 20 μl of assay buffer (standard buffer) • 5 μl of ATP solution (in H2O) • 5 μl of test compound (in 10% DMSO) • 20 μl enzyme/substrate mix
The following amounts of enzyme and substrate were used per well:
The reaction cocktails were incubated at 30° C. for 60 minutes. The reaction was stopped with 50 μl of 2% (v/v) H3PO4, plates were aspirated and washed two times with 200 μl 0.9% (w/v) NaCl. Incorporation of ^33Pi was determined with a microplate scintillation counter (Microbeta, Wallac). All assays were performed with a BeckmanCoulter/SAGIAN™ Core System.
Evaluation of raw data: The median value of the counts in column 1 (n=8) of each assay plate was defined as “low control”. This value reflects unspecific binding of radioactivity to the plate in the absence of a protein kinase but in the presence of the substrate. The median value of the counts in column 7 of each assay plate (n=8) was taken as the “high control”, i.e. full activity in the absence of any inhibitor. The difference between high and low control was taken as 100% activity.
As part of the data evaluation the low control value from a particular plate was subtracted from the high control value as well as from all 80 “compound values” of the corresponding plate. The residual activity (in %) for each well of a particular plate was calculated by using the following formula: Res. Activity (%)=100×[(cpm of compound−low control)/(high control−low control)]
The residual activities for each concentration and the compound IC50 values were calculated using Quattro Workflow V3.1.1 (Quattro Research GmbH, Munich, Germany).

[1] = thiol containing conditions (1.2 mM DTT), ATP 0.3 μM, read-out: CDK12 IC50 Condition A

CDK12 wt/CycK, sequence (Q9NYV4 whole entry): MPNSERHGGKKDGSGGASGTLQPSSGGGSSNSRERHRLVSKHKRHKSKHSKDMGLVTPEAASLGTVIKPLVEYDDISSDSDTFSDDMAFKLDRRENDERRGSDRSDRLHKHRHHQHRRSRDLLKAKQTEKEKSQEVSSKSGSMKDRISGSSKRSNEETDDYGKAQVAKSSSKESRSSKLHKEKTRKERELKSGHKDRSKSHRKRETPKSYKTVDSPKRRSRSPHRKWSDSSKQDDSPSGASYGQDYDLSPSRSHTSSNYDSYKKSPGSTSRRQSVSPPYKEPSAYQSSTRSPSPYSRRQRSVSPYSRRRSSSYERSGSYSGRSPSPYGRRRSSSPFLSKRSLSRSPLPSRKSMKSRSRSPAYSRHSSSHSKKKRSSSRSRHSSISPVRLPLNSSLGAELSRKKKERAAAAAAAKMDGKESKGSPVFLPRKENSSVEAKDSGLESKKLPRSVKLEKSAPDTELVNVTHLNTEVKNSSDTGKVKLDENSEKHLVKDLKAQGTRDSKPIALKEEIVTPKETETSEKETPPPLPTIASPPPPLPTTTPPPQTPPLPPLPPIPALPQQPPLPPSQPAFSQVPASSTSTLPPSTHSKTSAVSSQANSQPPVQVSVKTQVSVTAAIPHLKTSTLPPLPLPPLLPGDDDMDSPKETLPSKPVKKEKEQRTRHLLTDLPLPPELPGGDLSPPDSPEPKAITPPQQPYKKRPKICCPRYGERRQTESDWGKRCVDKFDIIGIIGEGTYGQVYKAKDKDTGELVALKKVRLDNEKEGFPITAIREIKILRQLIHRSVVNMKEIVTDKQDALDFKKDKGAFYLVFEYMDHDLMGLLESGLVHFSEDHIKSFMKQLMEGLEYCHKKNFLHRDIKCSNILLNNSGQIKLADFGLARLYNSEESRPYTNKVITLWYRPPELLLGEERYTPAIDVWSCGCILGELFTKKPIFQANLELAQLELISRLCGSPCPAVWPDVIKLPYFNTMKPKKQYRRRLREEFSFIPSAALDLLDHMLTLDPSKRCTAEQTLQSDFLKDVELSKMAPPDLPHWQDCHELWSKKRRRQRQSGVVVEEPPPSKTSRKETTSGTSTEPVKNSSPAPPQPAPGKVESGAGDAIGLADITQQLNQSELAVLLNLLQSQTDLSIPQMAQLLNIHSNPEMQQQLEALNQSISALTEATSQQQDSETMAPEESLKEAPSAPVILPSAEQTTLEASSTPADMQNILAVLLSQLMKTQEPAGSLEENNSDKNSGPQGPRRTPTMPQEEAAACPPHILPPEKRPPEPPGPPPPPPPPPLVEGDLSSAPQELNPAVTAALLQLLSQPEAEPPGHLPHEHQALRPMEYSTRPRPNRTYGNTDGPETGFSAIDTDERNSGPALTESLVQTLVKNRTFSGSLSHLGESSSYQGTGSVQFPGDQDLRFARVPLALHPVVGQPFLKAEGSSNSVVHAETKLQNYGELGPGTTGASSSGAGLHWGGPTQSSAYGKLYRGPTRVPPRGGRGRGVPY
CDK12 wt/CycK, sequence (O75909 whole entry partner): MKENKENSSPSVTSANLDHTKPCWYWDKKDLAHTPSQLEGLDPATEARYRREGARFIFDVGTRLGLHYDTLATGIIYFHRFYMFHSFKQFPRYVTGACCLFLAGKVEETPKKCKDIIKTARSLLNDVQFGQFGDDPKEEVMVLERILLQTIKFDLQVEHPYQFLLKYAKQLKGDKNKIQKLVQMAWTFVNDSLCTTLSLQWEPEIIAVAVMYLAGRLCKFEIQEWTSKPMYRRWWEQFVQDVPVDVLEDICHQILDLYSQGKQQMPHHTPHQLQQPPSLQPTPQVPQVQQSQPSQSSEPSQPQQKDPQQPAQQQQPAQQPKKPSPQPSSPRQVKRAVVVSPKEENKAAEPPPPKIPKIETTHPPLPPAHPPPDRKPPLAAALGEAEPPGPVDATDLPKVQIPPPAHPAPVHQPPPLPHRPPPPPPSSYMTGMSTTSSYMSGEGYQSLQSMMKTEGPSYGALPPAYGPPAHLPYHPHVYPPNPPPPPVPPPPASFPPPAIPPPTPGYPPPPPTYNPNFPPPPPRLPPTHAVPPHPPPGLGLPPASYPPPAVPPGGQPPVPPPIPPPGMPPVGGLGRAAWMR

Row | SMILES | IC50 [1] [nM] | IC50 [nM]
1 | C=CC(=O)Nc1ccc(C(=O)N2CC[C@@H](Nc3ncc(Cl)cn3)C2)cc1OCCN(C)C [Example 112, (R)—N-(4-(3-((5-chloropyrimidin-2-yl)amino)pyrrolidine-1-carbonyl)-2-(2-(dimethylamino)ethoxy)phenyl)acrylamide] | – | 100 to 1000
2 | O=C(c1cccc(N2C(=O)C=CC2=O)c1)N1CC[C@@H](Nc2ncc(Cl)cn2)C1 [Example 116, (R)-1-(3-(3-((5-chloropyrimidin-2-yl)amino)pyrrolidine-1-carbonyl)phenyl)-1H-pyrrole-2,5-dionefuran-2,5-dione] | 1000 to 10000 | –
3 | C=CC(=O)Nc1ccc(C(=O)N2CC[C@@H](Nc3ncc(Cl)c(OCCOCC)n3)C2)cc1N1CCN(C)CC1 [Example 123, (R)—N-(4-(3-((5-chloro-4-(2-ethoxyethoxy)pyrimidin-2-yl)amino)pyrrolidine-1-carbonyl)-2-(4-methylpiperazin-1-yl)phenyl)acrylamide] | 100 to 1000 | –
4 | C#CC(=O)Nc1ccc(C(=O)N2CC[C@@H](Nc3ncc(Cl)c(OC)n3)C2)cc1 [Example 124, (R)—N-(4-(3-((5-chloro-4-methoxypyrimidin-2-yl)amino)pyrrolidine-1-carbonyl)phenyl)propiolamide] | < 100 | –
5 | C#CC(=O)Nc1ccc(C(=O)N2CC[C@@H](Nc3ncc(Cl)cn3)C2)cc1 [Example 125, (R)—N-(4-(3-((5-chloropyrimidin-2-yl)amino)pyrrolidine-1-carbonyl)phenyl)propiolamide] | < 100 | –
6 | C=CC(=O)Nc1ccc(C(=O)N2CC[C@@H](Nc3ncc(Cl)cn3)C2)cc1N1CCC(N(C)C)C1 (stereo partly drawn) [Example 127, N-(4-((R)-3-((5-chloropyrimidin-2-yl)amino)pyrrolidine-1-carbonyl)-2-(3-(dimethylamino)pyrrolidin-1-yl)phenyl)acrylamide] | 100 to 1000 | –
7 | [2H]C([2H])([2H])Oc1nc(N[C@@H]2CCN(C(=O)c3cccc(N4C(=O)C=CC4=O)c3)C2)ncc1Cl [Example 128, (R)-1-(3-(3-((5-chloro-4-(trideuteriomethoxy)pyrimidin-2-yl)amino)pyrrolidine-1-carbonyl)phenyl)-1H-pyrrole-2,5-dione] | 1000 to 10000 | –

Continued, in another order:

Row | IC50 [1] [nM] | SMILES | IC50 [nM]
8 | 100 to 1000 | [2H]C([2H])([2H])Oc1nc(N[C@@H]2CCN(C(=O)c3ccc(NC(=O)/C=C/CN(C)C)cc3)C2)ncc1Cl [Example 114, (R,E)-N-(4-(3-((5-chloro-4-(trideuteromethoxy)pyrimidin-2-yl)amino)pyrrolidine-1-carbonyl)phenyl)-4-(dimethylamino)but-2-enamide] | –
9 | 100 to 1000 | COc1nc(N[C@@H]2CCN(C(=O)c3ccc(NC(=O)/C=C/CN(C)C)cc3)C2)ncc1Cl [Example 115, (R,E)-N-(4-(3-((5-chloro-4-methoxypyrimidin-2-yl)amino)pyrrolidine-1-carbonyl)phenyl)-4-(dimethylamino)but-2-enamide] | –
10 | 100 to 1000 | COc1nc(N[C@@H]2CCN(C(=O)c3ccc(NC(=O)/C=C/CN(C)C)c(C)c3)C2)ncc1Cl [Example 117, (R,E)-N-(4-(3-((5-chloro-4-methoxypyrimidin-2-yl)amino)pyrrolidine-1-carbonyl)-2-methylphenyl)-4-(dimethylamino)but-2-enamide] | –
11 | 10000 to 30000 | C=CC(=O)Nc1ccc(C(=O)N2CC[C@@H](Nc3ncc(C(F)(F)F)c(N(C)C)n3)C2)cc1 [Example 118, (R)—N-(4-(3-((4-(dimethylamino)-5-(trifluoromethyl)pyrimidin-2-yl)amino)pyrrolidine-1-carbonyl)phenyl)acrylamide] | –
12 | 100 to 1000 | C=CC(=O)Nc1ccc(C(=O)N2CC[C@@H](Nc3ncc(Cl)c(OCC)n3)C2)cc1N1CCN(C)CC1 [Example 119, (R)—N-(4-(3-((5-chloro-4-ethoxypyrimidin-2-yl)amino)pyrrolidine-1-carbonyl)-2-(4-methylpiperazin-1-yl)phenyl)acrylamide] | –
13 | < 100 | C=CC(=O)Nc1ccc(C(=O)N2CC[C@@H](Nc3ncc(C(F)(F)F)c(NC)n3)C2)cc1 [Example 120, (R)—N-(4-(3-((4-(methylamino)-5-(trifluoromethyl)pyrimidin-2-yl)amino)pyrrolidine-1-carbonyl)phenyl)acrylamide] | –

From US10894788B2, “Inhibitors of cyclin-dependent kinases” (Kinnate Biopharma Inc., priority 2018, dated 2021)
